Here are results for 3 compounds from patent US20080281104A1, “Membrane-Anchoring Fluorescent Probe” (THE UNIVERSITY OF TOKYO, priority 2005, published 2008).

The test system of test [1] is HeLa cell membranes. Kind of test: Function as NO probe on cell membrane (NOC13 addition). It counts as cell-based. As to conditions: 7.5 μmol/L probe, PBS(+) pH 7.4, NOC13 100 μmol/L at 120 seconds and 1 mmol/L at 1,800 seconds, HeLa cells (FIG. 6). The procedure: To 1 mL of an extracellular fluid (pH 7.4, PBS (+)) loaded with DAF-PIP-DPPE (7.5 μmol/L) was added NOC13 solution (500 μL) prepared before use.

In test [2] the test system is HeLa cells. Put plainly: Fluorescence intensity change of loaded cells on extracellular pH change. As to conditions: extracellular fluid pH from 7.4 to 6.7 to 6.4, loaded cells, fluorescence microscope (FIG. 5). It counts as cell-based.
Method: As a control experiment, a fluorescein ester derivative (fluorescein diacetate), which can penetrate cell membranes and undergo hydrolysis by cytoplasmic esterase to distribute fluorescein intracellularly, was loaded on the cells, then the cells were treated in the same manner.
Test [3] can be described thus: Fluorescence time course of reaction with NO released from NOC13. As to conditions: 1.27 μmol/L in PBS(−), 37° C., NOC13 5, 50, 100, 500 μmol/L (FIG. 2). On the procedure: To a 1.27 μmol/L DAF-PIPA PBS(−) solution at 37° C. was added NOC13 as a sustained release-type NO releasing agent at concentrations of 5 μmol/L, 50 μmol/L, 100 μmol/L, and 500 μmol/L, respectively, and change in the reaction with NO over time was measured.

`CCCCCCCCCCCCCCCC(=O)OC[C@H](COP(=O)(O)OCCNC(=O)C1CCN(C(=O)c2cc(N)c(N)cc2-c2c3ccc(=O)cc-3oc3cc(O)ccc23)CC1)OC(=O)CCCCCCCCCCCCCCC` [DAF-PIP-DPPE]: the “fluorescence intensity change on cell membranes after NOC13” value in test [1] is listed as “Marked increase in the fluorescence intensity”.

Take `CC(=O)Oc1ccc2c(c1)Oc1cc(OC(C)=O)ccc1C21OC(=O)c2ccccc21` [fluorescein diacetate]: the “decrease in fluorescence intensity according to pH change of extracellular fluid” value in test [2] was “no change in fluorescence intensity”.

In the case of DAF-piperidinic Acid [DAF-PIPA], in test [3], the “change in fluorescence intensity on reaction with NO” value was “became larger in a NO concentration-dependent manner”.
